Assay results taken from PubChem BioAssay (NCI).
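Dose response: 5 concentrations. Exposure: 48 h. Format: 96-well plates. Endpoint: linear interpolation; highest concentration if not reached. TGI: concentration producing complete growth inhibition.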

Experiments:
Test in all cases: NCI tumour cell line growth inhibition, 48 h
OVCAR-8 ovarian = test system: OVCAR-8 ovarian
NCI-H23 lung = test system: NCI-H23 lung
TK-10 renal = test system: TK-10 renal
IGROV1 ovarian = test system: IGROV1 ovarian
CCRF-CEM leukemia = test system: CCRF-CEM leukemia
SF-268 CNS = test system: SF-268 CNS
HT29 colon = test system: HT29 colon
NCI-H522 lung = test system: NCI-H522 lung
K-562 leukemia = test system: K-562 leukemia
UO-31 renal = test system: UO-31 renal
HS 578T breast = test system: HS 578T breast
OVCAR-3 ovarian = test system: OVCAR-3 ovarian
OVCAR-5 ovarian = test system: OVCAR-5 ovarian
HL-60(TB) leukemia = test system: HL-60(TB) leukemia
HOP-62 NSCLC = test system: HOP-62 NSCLC
MALME-3M melanoma = test system: MALME-3M melanoma
COLO 205 colon = test system: COLO 205 colon
MDA-MB-231 breast = test system: MDA-MB-231 breast
HCT-15 colon = test system: HCT-15 colon
UACC-62 melanoma = test system: UACC-62 melanoma
LOX IMVI melanoma = test system: LOX IMVI melanoma
SNB-75 CNS = test system: SNB-75 CNS
OVCAR-4 ovarian = test system: OVCAR-4 ovarian
SK-MEL-5 melanoma = test system: SK-MEL-5 melanoma
SK-MEL-2 melanoma = test system: SK-MEL-2 melanoma
HCC-2998 colon = test system: HCC-2998 colon
SR leukemia = test system: SR leukemia
UACC-257 melanoma = test system: UACC-257 melanoma
BT-549 breast = test system: BT-549 breast
SW-620 colon = test system: SW-620 colon
PC-3 prostate = test system: PC-3 prostate
MCF7 breast = test system: MCF7 breast
SF-539 CNS = test system: SF-539 CNS
RXF 393 renal = test system: RXF 393 renal
A549 NSCLC = test system: A549 NSCLC
M14 melanoma = test system: M14 melanoma
NCI/ADR-RES ovarian = test system: NCI/ADR-RES ovarian
NCI-H460 lung = test system: NCI-H460 lung
786-0 renal = test system: 786-0 renal
A498 renal = test system: A498 renal
NCI-H226 lung = test system: NCI-H226 lung
U251 CNS = test system: U251 CNS
MDA-MB-435 = test system: MDA-MB-435
ACHN renal = test system: ACHN renal
SF-295 CNS = test system: SF-295 CNS
HCT-116 colon = test system: HCT-116 colon
SK-OV-3 ovarian = test system: SK-OV-3 ovarian
HOP-92 NSCLC = test system: HOP-92 NSCLC
SNB-19 CNS = test system: SNB-19 CNS
MDA-N = test system: MDA-N
SN12C renal = test system: SN12C renal
EKVX NSCLC = test system: EKVX NSCLC
DU-145 prostate = test system: DU-145 prostate
CAKI-1 renal = test system: CAKI-1 renal
RPMI-8226 leukemia = test system: RPMI-8226 leukemia
SK-MEL-28 melanoma = test system: SK-MEL-28 melanoma

O=C1NNC2NC(=O)C3(NN2C1=O)c1ccccc1-c1ccccc13 (stereo not given)
TGI (OVCAR-8 ovarian): > 100 µM | TGI (NCI-H23 lung): > 100 µM | TGI (TK-10 renal): > 100 µM | TGI (IGROV1 ovarian): > 100 µM | TGI (CCRF-CEM leukemia): > 100 µM | TGI (SF-268 CNS): > 100 µM | TGI (HT29 colon): > 100 µM | TGI (NCI-H522 lung): > 100 µM | TGI (K-562 leukemia): > 100 µM | TGI (UO-31 renal): > 100 µM | TGI (HS 578T breast): > 100 µM | TGI (OVCAR-3 ovarian): > 100 µM | TGI (OVCAR-5 ovarian): > 100 µM | TGI (HL-60(TB) leukemia): > 100 µM | TGI (HOP-62 NSCLC): > 100 µM | TGI (MALME-3M melanoma): > 100 µM | TGI (COLO 205 colon): > 100 µM | TGI (MDA-MB-231 breast): > 100 µM | TGI (HCT-15 colon): > 100 µM | TGI (UACC-62 melanoma): > 100 µM | TGI (LOX IMVI melanoma): > 100 µM | TGI (SNB-75 CNS): > 100 µM | TGI (OVCAR-4 ovarian): > 100 µM | TGI (SK-MEL-5 melanoma): > 100 µM | TGI (SK-MEL-2 melanoma): > 100 µM | TGI (HCC-2998 colon): > 100 µM | TGI (SR leukemia): > 100 µM | TGI (UACC-257 melanoma): > 100 µM | TGI (BT-549 breast): > 100 µM | TGI (SW-620 colon): > 100 µM | TGI (PC-3 prostate): > 100 µM | TGI (MCF7 breast): > 100 µM | TGI (SF-539 CNS): > 100 µM | TGI (RXF 393 renal): > 100 µM | TGI (A549 NSCLC): > 100 µM | TGI (M14 melanoma): > 100 µM | TGI (NCI/ADR-RES ovarian): > 100 µM | TGI (NCI-H460 lung): > 100 µM | TGI (786-0 renal): > 100 µM | TGI (A498 renal): > 100 µM | TGI (NCI-H226 lung): > 100 µM | TGI (U251 CNS): > 100 µM | TGI (MDA-MB-435): > 100 µM | TGI (ACHN renal): > 100 µM | TGI (SF-295 CNS): > 100 µM | TGI (HCT-116 colon): > 100 µM | TGI (SK-OV-3 ovarian): > 100 µM | TGI (HOP-92 NSCLC): > 100 µM | TGI (SNB-19 CNS): > 100 µM | TGI (MDA-N): > 100 µM | TGI (SN12C renal): > 100 µM | TGI (EKVX NSCLC): > 100 µM | TGI (DU-145 prostate): > 100 µM | TGI (CAKI-1 renal): > 100 µM

CN(C)c1ccc(/C=C2\N=C(N/N=C/c3ccccc3O)NC2=O)cc1
TGI (RPMI-8226 leukemia): > 100 µM | TGI (TK-10 renal): 59.4 µM | TGI (SF-268 CNS): > 100 µM | TGI (HT29 colon): > 100 µM | TGI (HS 578T breast): > 100 µM | TGI (OVCAR-5 ovarian): > 100 µM | TGI (HOP-62 NSCLC): 53 µM | TGI (COLO 205 colon): > 100 µM | TGI (SNB-75 CNS): 89.7 µM | TGI (HCC-2998 colon): > 100 µM | TGI (BT-549 breast): > 100 µM | TGI (RXF 393 renal): 55.9 µM | TGI (A498 renal): 61.7 µM | TGI (NCI-H226 lung): 41.1 µM | TGI (MDA-MB-435): > 100 µM | TGI (SK-MEL-28 melanoma): 62.7 µM | TGI (HOP-92 NSCLC): 59.7 µM | TGI (SNB-19 CNS): > 100 µM | TGI (MDA-N): > 100 µM | TGI (SN12C renal): > 100 µM | TGI (DU-145 prostate): > 100 µM
